The values that follow are results of earlier work, collected in patent US20190230969A1, “COMPOSITION OF PURIFIED SOLUBLE MANNANS FOR DIETARY SUPPLEMENTS AND METHODS OF USE THEREOF” (priority 2010, published 2019).

The test system of one data set is patients. Particulars: in vivo.
In data set [1] the test system is normal and castrated rats. Particulars: 10 mg/kg subcutaneously biweekly, 4 weeks.

For the compound `C[C@H]1O[C@H](O[C@H]2[C@H](O)[C@@H](O)[C@@H](O[C@H]3[C@H](O)[C@@H](O)C(O)O[C@@H]3CO)O[C@@H]2CO)[C@H](O)[C@@H](O)[C@@H]1N[C@H]1C=C(CO)[C@@H](O)[C@H](O)[C@H]1O` (some centres unmarked) [acarbose], the “gastrointestinal disturbances (flatulence, abdominal distension, borborygmus, diarrhea)” value in the data set on patients is given as “High incidence of gastrointestinal disturbances”.
Regarding `C[C@]12CC[C@H]3[C@@H](CCC4=CC(=O)CC[C@@]43C)[C@@H]1CC[C@@H]2O` [testosterone], the “effect on BUN and testosterone levels” value in data set [1] was “increases”.
